The nature of series [1]: Aqueous solubility. The format is physicochemical. The note with it: water; for solubility: read-out: S.
A further series deals with Acetylcholinesterase (Homo sapiens, UniProt P22303). The experiment in a line: Concentration required for the inhibition of acetylcholinesterase.

Molecules are shown by their SMILES.

Acetylcholinesterase, sequence (P22303 whole entry): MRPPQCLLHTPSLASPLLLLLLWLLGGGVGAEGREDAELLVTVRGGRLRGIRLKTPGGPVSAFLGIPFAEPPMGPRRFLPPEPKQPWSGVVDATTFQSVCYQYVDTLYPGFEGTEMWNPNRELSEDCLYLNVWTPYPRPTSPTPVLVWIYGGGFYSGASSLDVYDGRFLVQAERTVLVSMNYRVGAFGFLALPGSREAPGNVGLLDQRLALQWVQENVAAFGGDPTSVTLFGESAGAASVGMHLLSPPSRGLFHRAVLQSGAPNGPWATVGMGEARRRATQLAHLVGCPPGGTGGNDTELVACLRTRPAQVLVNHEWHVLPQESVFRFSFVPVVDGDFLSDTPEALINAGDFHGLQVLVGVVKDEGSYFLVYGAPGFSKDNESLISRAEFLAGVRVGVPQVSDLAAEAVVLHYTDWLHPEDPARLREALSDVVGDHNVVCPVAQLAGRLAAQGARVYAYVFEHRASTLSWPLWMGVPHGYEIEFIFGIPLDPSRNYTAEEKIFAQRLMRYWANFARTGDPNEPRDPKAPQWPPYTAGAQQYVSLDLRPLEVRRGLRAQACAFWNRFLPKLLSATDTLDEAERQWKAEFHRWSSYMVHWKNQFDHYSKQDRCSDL

For orientation: IC50 means the midpoint of a concentration-inhibition curve. A higher IC50 goes with lower potency. Regarding `COCC[n+]1ccc(CCC(=O)c2cc3cc(OC)c(OC)cc3s2)cc1`, in series [1], the solubility turned out to be 33000 µg/mL. In addition, it took 30 nM to reach half-maximal inhibition against Acetylcholinesterase (IC50).

Take `CCC[n+]1ccc(CCC(=O)c2cc3cc(OC)c(OC)cc3s2)cc1.[Br-]`: the solubility in series [1] worked out at 16000 µg/mL.

In the case of `COc1cc2cc(C(O)C3CC[N+](C)(Cc4ccccc4)CC3)sc2cc1OC.[Br-]` (stereo not drawn), the solubility in series [1] worked out at 2000 µg/mL. Besides, the IC50 against Acetylcholinesterase is 19600 nM.

As for `COc1cc2cc(C(=O)CC3(O)CC[N+](C)(Cc4ccccc4)CC3)sc2cc1OC.[Br-]` (stereo not drawn), the solubility in series [1] came to 1250 µg/mL.

Turning to `COC(=O)C[N+]1(C)CCC(CCC(=O)c2cc3cc(OC)c(OC)cc3s2)CC1.[Br-]` (stereo not drawn), the solubility in series [1] came to 60000 µg/mL. For the same compound, the midpoint of inhibition at Acetylcholinesterase, the IC50, lay at 54 nM.

For `COc1cc2cc(C(=O)CC(O)C3CC[N+](C)(Cc4ccccc4)CC3)sc2cc1OC` (stereo in doubt; 9) [listing 1 of 2 here], at Acetylcholinesterase, the IC50 stood at 190 nM.

Turning to `CCOCC[n+]1ccc(CCC(=O)c2cc3cc(OC)c(OC)cc3s2)cc1`, in series [1], the solubility stood at 50000 µg/mL. For the same compound, the IC50 at Acetylcholinesterase turned out to be 7 nM.

Take `COc1cc2cc(C(=O)CCCCC3CC[N+](C)(Cc4ccccc4)CC3)sc2cc1OC.[Br-]` (stereo not drawn): in series [1], the solubility worked out at 1000 µg/mL. This compound also had an IC50 against Acetylcholinesterase of 110 nM.

As to `COc1cc2cc(C(=O)CC(O)C3CC[N+](C)(Cc4ccccc4)CC3)sc2cc1OC.[Br-]` (stereo in doubt; 6), the S in series [1] is 10 mg/mL. This compound returned an IC50 against Acetylcholinesterase of 43 nM.

In the case of `COc1cc2cc(C(=O)CCc3cc[n+](Cc4ccc(F)cc4)cc3)sc2cc1OC`, in series [1], the solubility was 1000 µg/mL. In addition, the IC50 at Acetylcholinesterase was found to be 2.6 nM.

Take `COCC[N+]1(C)CCC(CCC(=O)c2cc3cc(OC)c(OC)cc3s2)CC1.[Br-]` (stereo not drawn): the solubility in series [1] is 60000 µg/mL. At Acetylcholinesterase, this compound registered an IC50 of 53 nM.

Regarding `COc1cc2cc(C(=O)CCc3cc[n+](Cc4ccccc4)cc3)sc2cc1OC`, the solubility in series [1] worked out at 2000 µg/mL.

For `COc1cc2cc(C(=O)CCC3CC[N+](C)(Cc4ccccc4)CC3)sc2cc1OC.[Br-]` (stereo not drawn), the solubility in series [1] was 2000 µg/mL.

On to `COc1cc2cc(C(=O)CCC3CC[N+](C)(Cc4ccc([N+](=O)[O-])o4)CC3)sc2cc1OC.[Br-]` (stereo not drawn), for which the solubility in series [1] was 600 µg/mL. Moreover, on Acetylcholinesterase, 32 nM corresponded to half-maximal inhibition (IC50).

As for `COc1cc2cc(C(=O)CCC3CC[N+](C)(CC#N)CC3)sc2cc1OC.[Br-]` (stereo not drawn), the solubility in series [1] is 2000 µg/mL. This compound also had an IC50 at Acetylcholinesterase of over 1000 nM.

`COc1cc2cc(C(=O)CC(O)C3CC[N+](C)(Cc4ccccc4)CC3)sc2cc1OC.[Br-]` (single isomer, unassigned; (-)) had a S in series [1] of 8 mg/mL. Moreover, the 50% inhibitory concentration (IC50) on Acetylcholinesterase was found to be 665 nM.

As for `COc1cc2cc(C(=O)CCc3cc[n+](CC4CCC4)cc3)sc2cc1OC.[Br-]`, the solubility in series [1] came to 6000 µg/mL. This compound also registered an IC50 on Acetylcholinesterase of 40 nM.

For the compound `COc1cc2cc(CC3CC[N+](C)(Cc4ccccc4)CC3)sc2cc1OC.[Br-]` (stereo not drawn), in series [1], the solubility is 3000 µg/mL. The same compound showed an IC50 at Acetylcholinesterase of 10000 nM.

The term Solubility denotes the dissolved amount per volume that the medium holds. Low readings indicate little dissolved substance, high ones much dissolved substance. In the case of `COc1cc2cc(C(=O)CC(O)C3CC[N+](C)(Cc4ccccc4)CC3)sc2cc1OC` (stereo in doubt; 9) [listing 2 of 2 here], the Solubility in the series “Aqueous solubility” came to 10000 µg/mL.

For `COC(=O)c1ccc(C[n+]2ccc(CCC(=O)c3cc4cc(OC)c(OC)cc4s3)cc2)cc1`, in series [1], the solubility is 3500 µg/mL.

In the case of `COc1cc2cc(C(=O)CCC3CC[N+](C)(CC4CCCCO4)CC3)sc2cc1OC.[Br-]` (stereo not drawn), the solubility in series [1] is 1500 µg/mL. For the same compound, on Acetylcholinesterase, 28 nM corresponded to half-maximal inhibition (IC50).

Regarding `COc1cc2cc(C(=O)CC(OC)C3CC[N+](C)(Cc4ccccc4)CC3)sc2cc1OC.[Br-]` (stereo not drawn), the solubility in series [1] was 1500 µg/mL. Further, it took 120 nM to reach half-maximal inhibition against Acetylcholinesterase (IC50).

Turning to `C=CC[n+]1ccc(CCC(=O)c2cc3cc(OC)c(OC)cc3s2)cc1.[Br-]`, the solubility in series [1] amounted to 25000 µg/mL. This compound came in with an IC50 against Acetylcholinesterase of 540 nM.

For `COc1cc2cc(C(=O)CCc3cc[n+](Cc4ccsc4)cc3)sc2cc1OC`, the solubility in series [1] was found to be 2000 µg/mL. On Acetylcholinesterase, this compound had a half-maximal inhibitory concentration (IC50) of 6 nM.

`COc1cc2cc(C(=O)CCc3cc[n+](C)cc3)sc2cc1OC.[Br-]`: in series [1], the solubility came out at 3000 µg/mL. This compound also registered an IC50 on Acetylcholinesterase of 900 nM.

For `COc1cc2cc(C(=O)CCC3CC[N+](C)(CCOc4ccccc4)CC3)sc2cc1OC.[Br-]` (stereo not drawn), the solubility in series [1] came to 900 µg/mL. Besides, half-maximal inhibition against Acetylcholinesterase (IC50) was put at 390 nM.

As to `COc1cc2cc(C(=O)CC3=CC[N+](C)(Cc4ccccc4)CC3)sc2cc1OC.[Br-]` (stereo not drawn), in series [1], the solubility is 20000 µg/mL. This compound also gave an IC50 at Acetylcholinesterase of 750 nM.

On to `COc1cc2cc(C(=O)CCc3cc[n+](Cc4ccc([N+](=O)[O-])o4)cc3)sc2cc1OC.[Br-]`, for which the solubility in series [1] came out at 35000 µg/mL. The IC50 at Acetylcholinesterase worked out at 4.5 nM.

For `COc1cc2cc(C(=O)CC(O)C3CC[N+](C)(Cc4ccccc4)CC3)sc2cc1OC.[Br-]` (single isomer, unassigned; (+)), the solubility in series [1] was determined as 10000 µg/mL. On Acetylcholinesterase, this compound showed an IC50 of 219 nM.

As to `COc1cc2cc(C=C3CC[N+](C)(Cc4ccccc4)CC3)sc2cc1OC.[Br-]` (stereo not drawn), the solubility in series [1] was found to be 1000 µg/mL. For the same compound, the IC50 against Acetylcholinesterase turned out to be 2670 nM.

For `COc1cc2cc(C(=O)C=C3CC[N+](C)(Cc4ccccc4)CC3)sc2cc1OC.[Br-]` (stereo not drawn), the solubility in series [1] stood at 25000 µg/mL. This compound came in with an IC50 against Acetylcholinesterase of 520 nM.

As to `CC[n+]1ccc(CCC(=O)c2cc3cc(OC)c(OC)cc3s2)cc1.[Br-]`, the solubility in series [1] was 25000 µg/mL. The compound also registered an IC50 at Acetylcholinesterase of 280 nM.

In the case of `COc1cc2cc(C(=O)CCC3CC[N+](C)(CC(=O)OC(C)(C)C)CC3)sc2cc1OC.[Br-]` (stereo not drawn), the solubility in series [1] worked out at 1500 µg/mL. This compound also came in with an IC50 at Acetylcholinesterase of 79 nM.

Take `COc1cc2cc(C(=O)CC(O)CCC3CC[N+](C)(Cc4ccccc4)CC3)sc2cc1OC.[Br-]` (stereo not drawn): the solubility in series [1] was 2500 µg/mL. Half-maximal inhibition on Acetylcholinesterase (IC50) was put at 380 nM.

Regarding `COc1cc2cc(C(=O)CCc3cc[n+](CC4CC4)cc3)sc2cc1OC.[Br-]`, in series [1], the solubility was 15000 µg/mL. For the same compound, the concentration for half-maximal inhibition (IC50) against Acetylcholinesterase came out at 110 nM.
